Results reported in US20220287936A1, “AN ANTIDANDRUFF COMPOSITION” (Conopco, Inc., d/b/a UNILEVER, priority 2019, published 2022).

test system: Malassezia furfur 14521; assay: Antifungal activity on M. furfur (resazurin viability assay, MIC and ΣFIC synergy evaluation); type: cell-based; conditions: M. furfur 14521, YPD broth, 30° C., 72 hours, resazurin readout
Description: The samples as given in Table-1 were subjected to their anti fungal efficacy on M. furfur as described hereinafter.
The test organism used in the assay is Malassezia furfur 14521. The M. furfur were revived from glycerol stock in YPD agar plates (yeast extract peptone dextrose media) containing 1% corn oil. The composition of YPD is yeast extract:10 g/litre, dextrose 20 g/litre, Peptone 20 g/litre and […]. The plates were incubated at 30° C. for 72 hours for forming fungal colonies. A suspension culture of M. furfur was made using the colonies from plates in YPD broth. The optical density of the suspension culture was adjusted to 0.6 using spectrophotometer. This suspension was diluted in the ratio of 1:10 using YPD broth and 100 μl of this culture was added into each well of 96 well test plate. A stock solution of 4× strength of test ingredients (itaconic acid and sodium benzoate) was prepared for each of the concentrations tested eg for 0.125% test concentration of itaconic acid/sodium benzoate a stock of 0.5% was prepared in YPD broth. 50 μl of each of the test ingredient was added to 100 μl of M. furfur culture, making the final volume to 200 μl. In wells containing only one test ingredient, (itaconic acid or sodium benzoate only) 50 μl of test ingredient was added to 100 μl of fungal culture and then made up the volume to 200 μl with YPD broth. The plates were incubated at 30° C. for 72 hours. Post incubation 10 μl of 1% resazurin was added to each well and incubated for 18 hours at 30° C. […] The anti-fungal efficacy of the ingredient or combination of ingredients is calculated based on the colour development.
The combinations of test ingredients with synergistic anti-fungal benefits were evaluated using ΣFIC method. The ΣFIC of the combinations were calculated using the following formula • ΣFIC of combination A+B=[Concentration of A]/MIC of A+[concentration of B]/MIC of B, where MIC is the Minimum inhibitory concentration (MIC) of ingredient. […]

First: C=C(CC(=O)OC)C(=O)OC [Dimethyl itaconate]
Second: C=C(CC(=O)O)C(=O)O [Itaconic acid]
The “MIC (Minimum inhibitory concentration)” value of the first is higher: 0.5 wt % for the first, 0.25 wt % for the second.

`O=C([O-])c1ccccc1.[Na+]` [Sodium Benzoate] was tested, and the “MIC (Minimum inhibitory concentration)” value was 0.5 wt %.
